The values below come from ChEMBL document CHEMBL5725601, “Tetrahydroisoquinoline derivatives useful as inhibitors of diacylglyceride O-acyltransferase 2” (2018).

SMILES strings stand for the structures. pIC50: −log10 of the molar value.

The assay deals with T1, Diacylglycerol O-acyltransferase 2 (Homo sapiens, UniProt Q96PD7).
T1 sequence (Q96PD7 whole entry): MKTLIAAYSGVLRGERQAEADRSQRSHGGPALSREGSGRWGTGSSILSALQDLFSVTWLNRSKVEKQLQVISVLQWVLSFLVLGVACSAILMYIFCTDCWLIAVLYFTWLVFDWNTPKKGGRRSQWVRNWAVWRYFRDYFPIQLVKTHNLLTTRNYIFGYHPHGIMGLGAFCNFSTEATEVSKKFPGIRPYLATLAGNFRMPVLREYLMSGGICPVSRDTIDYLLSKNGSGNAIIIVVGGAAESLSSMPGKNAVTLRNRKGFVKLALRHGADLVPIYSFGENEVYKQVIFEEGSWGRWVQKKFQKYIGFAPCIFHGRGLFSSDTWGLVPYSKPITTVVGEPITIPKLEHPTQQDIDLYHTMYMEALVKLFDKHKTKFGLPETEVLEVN
As to the kind of experiment: Enzymatic Activity Assay: DGAT2 activity was determined by measuring the amount of enzymatic product triolein (1,2,3-Tri(cis-9-octadecenoyl)glycerol) using the membrane prep mentioned above. The assay was carried out in deep well 384 plates in a final volume of 40 μL at room temperature. The assay mixture contained the following: assay buffer (100 mM Tris·Cl, pH 7.0, 20 mM MgCl2, 5% ethanol), 25 μM of diolein, 10 μM of oleoyl-CoA and 10 ng/μL of DGAT2 membrane.

As to `CC(C)(C)NC(=O)N1CCc2c(-c3cccc(C(F)(F)F)c3)ccc(C(=O)NCc3nc(-c4ccccn4)no3)c2C1`, the pIC50 was 6.23.
Then `CC(C)(C)NC(=O)N1CCc2c(-c3cccc(C(F)(F)F)c3)ccc(C(=O)NCc3noc(-c4ccccc4)n3)c2C1`, with 6.49.

In general, pIC50 refers to −log10 of the IC50, conventionally taken in molar units.
